# Reference: article PMC10539439 (Pharmacological Reports, 2023)
# Assay: Blood pressure, 24-h telemetric method, normotensive rats
# Format: in vivo, rat
# Settings: telemetry, 5 mg/kg
# Procedure: The blood pressure of rats treated with the tested compound was measured for a 24 h period after ip treatment (5 mg/kg b.w.) with a special telemetric system Stellar (TSE-Systems, Germany).
# Surgery: The operation was carried out over 30 min under sterile conditions. Rats were anaesthetized with ketamine and xylasine (intramuscular injection: 100 mg/kg and 10 mg/kg). Before surgery and for 7 days after, the animals were also treated with cefuroxime (20 mg/kg/day) via intramuscular injection and ketoprofen (5 mg/kg/day) via ip injection. […] The transmitter was sutured to the peritoneal cavity.
# The rats were individually caged for 2 weeks to heal after surgical cut. The animals were then placed in pairs in cages to reduce their isolation stress. Blood pressure was measured: before ip administration of the compounds – time 0 min and 24 h thereafter.
# [1] = after first administration, time 12, n 6
# [2] = after first administration, time 13, n 6
# [3] = after first administration, time 14, n 6
# [4] = after first administration, time 15, n 6
# [5] = after first administration, time 16, n 6
# [6] = after first administration, time 17, n 6
# [7] = after first administration, time 18, n 6
# [8] = after first administration, time 19, n 6
# [9] = after first administration, time 20, n 6
# [10] = after first administration, time 21, n 6
# [11] = after first administration, time 22, n 6
# [12] = after first administration, time 23, n 6
# [13] = after first administration, time 24, n 6
# [14] = after forteenth administration, time 0, n 6
# [15] = after forteenth administration, time 0.25, n 6
# [16] = after seventh administration, time 0, n 6
# [17] = after seventh administration, time 0.25, n 6
# [18] = after seventh administration, time 0.5, n 6
# [19] = after seventh administration, time 0.75, n 6
# [20] = after seventh administration, time 1, n 6
# [21] = after seventh administration, time 1.25, n 6
# [22] = after seventh administration, time 1.5, n 6
# [23] = after seventh administration, time 1.75, n 6
# [24] = after seventh administration, time 2, n 6
# [25] = after seventh administration, time 3, n 6
# [26] = after seventh administration, time 4, n 6
# [27] = after seventh administration, time 5, n 6
# [28] = after seventh administration, time 6, n 6
# [29] = after seventh administration, time 7, n 6
# [30] = after seventh administration, time 8, n 6
# [31] = after seventh administration, time 9, n 6
# [32] = after seventh administration, time 10, n 6
# [33] = after seventh administration, time 11, n 6
# [34] = after seventh administration, time 12, n 6
# [35] = after seventh administration, time 13, n 6
# [36] = after seventh administration, time 14, n 6
# [37] = after seventh administration, time 15, n 6
# [38] = after seventh administration, time 16, n 6
# [39] = after seventh administration, time 17, n 6
# [40] = after seventh administration, time 18, n 6
# [41] = after seventh administration, time 19, n 6
# [42] = after seventh administration, time 20, n 6
# [43] = after seventh administration, time 21, n 6
# [44] = after seventh administration, time 22, n 6
# [45] = after seventh administration, time 23, n 6
# [46] = after seventh administration, time 24, n 6
smiles,measurement,setting,value
N=C(N)N/N=C/c1c(Cl)cc(O)cc1Cl [4HOGuanabenz],"systolic pressure, mean","after first administration, time 11, n 6",107.6 mmHg
same,"diastolic pressure, mean",[1],80.25 mmHg
same,"systolic pressure, mean",[1],121.9 mmHg
same,"diastolic pressure, mean",[2],74.5 mmHg
same,"systolic pressure, mean",[2],114.9 mmHg
same,"diastolic pressure, mean",[3],81.88 mmHg
same,"systolic pressure, mean",[3],122.6 mmHg
same,"diastolic pressure, mean",[4],71.63 mmHg
same,"systolic pressure, mean",[4],109.4 mmHg
same,"diastolic pressure, mean",[5],72.75 mmHg
same,"systolic pressure, mean",[5],108.4 mmHg
same,"diastolic pressure, mean",[6],76.75 mmHg
same,"systolic pressure, mean",[6],112.6 mmHg
same,"diastolic pressure, mean",[7],78.75 mmHg
same,"systolic pressure, mean",[7],115.3 mmHg
same,"diastolic pressure, mean",[8],79.5 mmHg
same,"systolic pressure, mean",[8],117.3 mmHg
same,"diastolic pressure, mean",[9],77 mmHg
same,"systolic pressure, mean",[9],117.8 mmHg
same,"diastolic pressure, mean",[10],76.63 mmHg
same,"systolic pressure, mean",[10],117.8 mmHg
same,"diastolic pressure, mean",[11],71.5 mmHg
same,"systolic pressure, mean",[11],109.5 mmHg
same,"diastolic pressure, mean",[12],73.38 mmHg
same,"systolic pressure, mean",[12],109.5 mmHg
same,"diastolic pressure, mean",[13],77.63 mmHg
same,"systolic pressure, mean",[13],114.3 mmHg
same,"diastolic pressure, mean",[14],70.25 mmHg
same,"systolic pressure, mean",[14],110.5 mmHg
same,"diastolic pressure, mean",[15],90.75 mmHg
same,"systolic pressure, mean",[15],139.3 mmHg
same,"diastolic pressure, mean",[16],74.83 mmHg
same,"systolic pressure, mean",[16],108.2 mmHg
same,"diastolic pressure, mean",[17],97.5 mmHg
same,"systolic pressure, mean",[17],141.8 mmHg
same,"diastolic pressure, mean",[18],76.75 mmHg
same,"systolic pressure, mean",[18],114.3 mmHg
same,"diastolic pressure, mean",[19],77.5 mmHg
same,"systolic pressure, mean",[19],111.5 mmHg
same,"diastolic pressure, mean",[20],76.75 mmHg
same,"systolic pressure, mean",[20],109.3 mmHg
same,"diastolic pressure, mean",[21],74.25 mmHg
same,"systolic pressure, mean",[21],106.8 mmHg
same,"diastolic pressure, mean",[22],74 mmHg
same,"systolic pressure, mean",[22],107.3 mmHg
same,"diastolic pressure, mean",[23],70.75 mmHg
same,"systolic pressure, mean",[23],102 mmHg
same,"diastolic pressure, mean",[24],67.25 mmHg
same,"systolic pressure, mean",[24],100.5 mmHg
same,"diastolic pressure, mean",[25],74 mmHg
same,"systolic pressure, mean",[25],109 mmHg
same,"diastolic pressure, mean",[26],74.75 mmHg
same,"systolic pressure, mean",[26],109.3 mmHg
same,"diastolic pressure, mean",[27],74.25 mmHg
same,"systolic pressure, mean",[27],110.3 mmHg
same,"diastolic pressure, mean",[28],79.75 mmHg
same,"systolic pressure, mean",[28],113.8 mmHg
same,"diastolic pressure, mean",[29],70.5 mmHg
same,"systolic pressure, mean",[29],113.3 mmHg
same,"diastolic pressure, mean",[30],78.75 mmHg
same,"systolic pressure, mean",[30],116.3 mmHg
same,"diastolic pressure, mean",[31],75.5 mmHg
same,"systolic pressure, mean",[31],119.5 mmHg
same,"diastolic pressure, mean",[32],65.5 mmHg
same,"systolic pressure, mean",[32],106 mmHg
same,"diastolic pressure, mean",[33],75.75 mmHg
same,"systolic pressure, mean",[33],117.3 mmHg
same,"diastolic pressure, mean",[34],65.5 mmHg
same,"systolic pressure, mean",[34],116.8 mmHg
same,"diastolic pressure, mean",[35],79.25 mmHg
same,"systolic pressure, mean",[35],121.5 mmHg
same,"diastolic pressure, mean",[36],74 mmHg
same,"systolic pressure, mean",[36],111.5 mmHg
same,"diastolic pressure, mean",[37],77.25 mmHg
same,"systolic pressure, mean",[37],113.3 mmHg
same,"diastolic pressure, mean",[38],71.5 mmHg
same,"systolic pressure, mean",[38],107.3 mmHg
same,"diastolic pressure, mean",[39],79 mmHg
same,"systolic pressure, mean",[39],122.3 mmHg
same,"diastolic pressure, mean",[40],77 mmHg
same,"systolic pressure, mean",[40],117.5 mmHg
same,"diastolic pressure, mean",[41],77 mmHg
same,"systolic pressure, mean",[41],120.5 mmHg
same,"diastolic pressure, mean",[42],76.25 mmHg
same,"systolic pressure, mean",[42],122.3 mmHg
same,"diastolic pressure, mean",[43],69.25 mmHg
same,"systolic pressure, mean",[43],110 mmHg
same,"diastolic pressure, mean",[44],68 mmHg
same,"systolic pressure, mean",[44],108 mmHg
same,"diastolic pressure, mean",[45],63.75 mmHg
same,"systolic pressure, mean",[45],107 mmHg
same,"diastolic pressure, mean",[46],67.5 mmHg
same,"systolic pressure, mean",[46],105 mmHg
